Activity calls are given as the source filed them. No cut-off for these calls is given here.
How the values were obtained:
[1] = target: T1, Glycogen synthase kinase-3 alpha (Homo sapiens, UniProt P49840); assay: Inhibition of N-Terminal GST tagged human GSK3A expressed in baculovirus expression system after 1 hr by Z'-LYTE assay
Target sequence in this assay (P49840 whole entry): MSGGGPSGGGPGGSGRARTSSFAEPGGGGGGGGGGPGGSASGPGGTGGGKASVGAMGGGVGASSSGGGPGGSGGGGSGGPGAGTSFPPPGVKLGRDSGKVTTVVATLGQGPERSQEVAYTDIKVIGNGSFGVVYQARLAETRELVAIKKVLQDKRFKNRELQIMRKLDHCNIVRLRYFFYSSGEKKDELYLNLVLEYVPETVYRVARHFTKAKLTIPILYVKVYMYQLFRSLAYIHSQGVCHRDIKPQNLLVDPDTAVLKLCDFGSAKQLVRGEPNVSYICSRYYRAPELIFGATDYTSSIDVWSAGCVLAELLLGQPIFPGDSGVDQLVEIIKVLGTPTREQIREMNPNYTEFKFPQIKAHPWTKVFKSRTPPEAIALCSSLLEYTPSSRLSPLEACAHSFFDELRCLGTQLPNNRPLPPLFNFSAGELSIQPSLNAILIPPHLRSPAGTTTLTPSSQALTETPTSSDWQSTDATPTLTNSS

Staphylococcus aureus = assay: Antibacterial activity against Staphylococcus aureus up to 100 ug/ml; type: functional, organism-based
[2] = target: T2, Ribosomal protein S6 kinase alpha-3 (Homo sapiens, UniProt P51812); assay: Inhibition of His-tagged recombinant human RSK2 expressed in baculovirus expression system after 1 hr by Z'-LYTE assay
[3] = target: Glycogen synthase kinase-3 beta (Homo sapiens) (UniProt P49841); assay: Inhibition of N-Terminal His tagged human GSK3B expressed in baculovirus expression system at 10 uM after 1 hr by Z'-LYTE assay relative to control
Saccharomyces cerevisiae = assay: Antifungal activity against Saccharomyces cerevisiae; type: functional, organism-based
[4] = target: Maternal embryonic leucine zipper kinase (Homo sapiens) (UniProt Q14680); assay: Inhibition of GST tagged human MELK expressed in baculovirus expression system at 10 uM after 1 hr by Z'-LYTE assay relative to control
HL-60 = assay: Cytotoxicity against human HL60 cells up to 10 uM; type: functional, cell-based
[5] = target: T1, Glycogen synthase kinase-3 alpha; assay: Inhibition of N-Terminal GST tagged human GSK3A expressed in baculovirus expression system at 10 uM after 1 hr by Z'-LYTE assay relative to control
Target sequence in this assay (P49840 2-483 limits assumed): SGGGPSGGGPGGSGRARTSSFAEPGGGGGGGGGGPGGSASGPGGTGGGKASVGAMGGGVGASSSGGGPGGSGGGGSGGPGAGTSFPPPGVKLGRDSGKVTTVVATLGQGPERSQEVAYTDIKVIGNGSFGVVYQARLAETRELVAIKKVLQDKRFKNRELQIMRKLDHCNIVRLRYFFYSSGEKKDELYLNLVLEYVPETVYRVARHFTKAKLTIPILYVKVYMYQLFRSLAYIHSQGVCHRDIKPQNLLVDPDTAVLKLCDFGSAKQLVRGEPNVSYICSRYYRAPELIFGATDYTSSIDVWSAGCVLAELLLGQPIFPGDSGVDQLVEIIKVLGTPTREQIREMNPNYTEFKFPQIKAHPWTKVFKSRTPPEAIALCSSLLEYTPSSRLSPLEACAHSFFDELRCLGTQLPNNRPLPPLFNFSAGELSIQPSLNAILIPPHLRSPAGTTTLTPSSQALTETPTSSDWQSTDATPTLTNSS

[6] = target: T2, Ribosomal protein S6 kinase alpha-3; assay: Inhibition of His-tagged recombinant human RSK2 expressed in baculovirus expression system at 10 uM after 1 hr by Z'-LYTE assay relative to control
[7] = target: T3, Mitogen-activated protein kinase 14 (Homo sapiens, UniProt Q16539); assay: Inhibition of human MAPK14 expressed in Escherichia coli at 10 uM after 1 hr by Z'-LYTE assay relative to control
[8] = target: MAP kinase-activated protein kinase 3 (Homo sapiens) (UniProt Q16644); assay: Inhibition of His-tagged human MAPKAPK3 expressed in baculovirus expression system at 10 uM after 1 hr by Z'-LYTE assay relative to control
[9] = target: MAP kinase-activated protein kinase 2 (Homo sapiens) (UniProt P49137); assay: Inhibition of His-tagged human MAPKAPK2 expressed in Escherichia coli at 10 uM after 1 hr by Z'-LYTE assay relative to control
[10] = target: T3, Mitogen-activated protein kinase 14; assay: Inhibition of human MAPK14 expressed in Escherichia coli after 1 hr by Z'-LYTE assay

Sequence of Maternal embryonic leucine zipper kinase (Homo sapiens) (Q14680 whole entry, looked up): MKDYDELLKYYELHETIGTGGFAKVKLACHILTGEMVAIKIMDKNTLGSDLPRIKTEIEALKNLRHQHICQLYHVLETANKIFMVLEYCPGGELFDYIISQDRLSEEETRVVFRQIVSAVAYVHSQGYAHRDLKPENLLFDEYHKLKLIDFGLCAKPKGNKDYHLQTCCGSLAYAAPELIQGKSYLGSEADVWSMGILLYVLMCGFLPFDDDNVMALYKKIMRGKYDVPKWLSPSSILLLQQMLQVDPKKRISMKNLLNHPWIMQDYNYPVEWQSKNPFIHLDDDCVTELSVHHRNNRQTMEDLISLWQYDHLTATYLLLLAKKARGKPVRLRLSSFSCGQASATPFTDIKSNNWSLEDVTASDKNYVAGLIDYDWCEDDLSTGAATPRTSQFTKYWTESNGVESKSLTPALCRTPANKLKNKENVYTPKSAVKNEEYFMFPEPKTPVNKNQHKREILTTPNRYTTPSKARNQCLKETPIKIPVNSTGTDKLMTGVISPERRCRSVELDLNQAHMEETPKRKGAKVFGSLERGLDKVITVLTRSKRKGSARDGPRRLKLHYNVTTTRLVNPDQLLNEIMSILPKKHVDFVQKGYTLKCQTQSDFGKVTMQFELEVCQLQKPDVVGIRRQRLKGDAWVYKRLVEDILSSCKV
T2 sequence (P51812 whole entry): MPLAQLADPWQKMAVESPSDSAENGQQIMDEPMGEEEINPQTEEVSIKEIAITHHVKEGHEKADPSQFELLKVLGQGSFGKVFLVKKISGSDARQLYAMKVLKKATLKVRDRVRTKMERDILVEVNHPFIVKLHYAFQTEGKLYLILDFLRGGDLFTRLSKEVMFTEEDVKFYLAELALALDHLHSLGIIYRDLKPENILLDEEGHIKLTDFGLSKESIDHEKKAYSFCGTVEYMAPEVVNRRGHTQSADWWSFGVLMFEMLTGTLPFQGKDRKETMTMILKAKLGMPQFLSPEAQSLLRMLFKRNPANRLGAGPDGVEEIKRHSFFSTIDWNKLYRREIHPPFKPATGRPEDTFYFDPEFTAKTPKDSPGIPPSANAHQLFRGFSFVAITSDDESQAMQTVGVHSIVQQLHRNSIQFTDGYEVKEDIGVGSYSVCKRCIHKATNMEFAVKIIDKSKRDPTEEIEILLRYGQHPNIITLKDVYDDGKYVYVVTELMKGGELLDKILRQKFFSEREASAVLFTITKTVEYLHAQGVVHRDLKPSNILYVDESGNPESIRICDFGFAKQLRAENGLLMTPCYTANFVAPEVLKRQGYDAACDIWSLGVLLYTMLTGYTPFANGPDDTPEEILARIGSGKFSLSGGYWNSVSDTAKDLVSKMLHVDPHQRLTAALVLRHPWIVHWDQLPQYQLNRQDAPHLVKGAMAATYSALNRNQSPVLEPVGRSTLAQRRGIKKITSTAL
Sequence of MAP kinase-activated protein kinase 2 (Homo sapiens) (P49137 whole entry, looked up): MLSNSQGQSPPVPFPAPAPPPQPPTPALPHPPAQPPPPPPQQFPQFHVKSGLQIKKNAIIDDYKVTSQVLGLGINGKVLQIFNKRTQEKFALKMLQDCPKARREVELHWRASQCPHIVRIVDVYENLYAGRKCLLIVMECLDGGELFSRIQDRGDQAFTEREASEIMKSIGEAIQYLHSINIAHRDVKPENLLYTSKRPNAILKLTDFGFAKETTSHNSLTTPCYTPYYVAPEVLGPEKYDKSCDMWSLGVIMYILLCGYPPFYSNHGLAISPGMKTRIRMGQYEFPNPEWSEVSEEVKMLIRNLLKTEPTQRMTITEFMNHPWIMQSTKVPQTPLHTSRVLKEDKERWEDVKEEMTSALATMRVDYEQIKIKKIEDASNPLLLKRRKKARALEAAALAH
Sequence of MAP kinase-activated protein kinase 3 (Homo sapiens) (Q16644 whole entry, looked up): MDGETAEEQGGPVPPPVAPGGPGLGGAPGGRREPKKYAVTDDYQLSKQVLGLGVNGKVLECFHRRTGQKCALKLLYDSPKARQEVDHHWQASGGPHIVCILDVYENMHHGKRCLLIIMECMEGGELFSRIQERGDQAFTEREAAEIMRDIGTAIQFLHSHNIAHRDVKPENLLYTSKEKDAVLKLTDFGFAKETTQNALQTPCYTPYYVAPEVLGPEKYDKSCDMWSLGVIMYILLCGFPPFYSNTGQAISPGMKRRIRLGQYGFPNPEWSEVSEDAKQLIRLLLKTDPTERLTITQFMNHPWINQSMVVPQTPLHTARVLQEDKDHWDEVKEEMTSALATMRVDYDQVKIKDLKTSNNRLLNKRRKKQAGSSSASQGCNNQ
T3 sequence (Q16539 whole entry): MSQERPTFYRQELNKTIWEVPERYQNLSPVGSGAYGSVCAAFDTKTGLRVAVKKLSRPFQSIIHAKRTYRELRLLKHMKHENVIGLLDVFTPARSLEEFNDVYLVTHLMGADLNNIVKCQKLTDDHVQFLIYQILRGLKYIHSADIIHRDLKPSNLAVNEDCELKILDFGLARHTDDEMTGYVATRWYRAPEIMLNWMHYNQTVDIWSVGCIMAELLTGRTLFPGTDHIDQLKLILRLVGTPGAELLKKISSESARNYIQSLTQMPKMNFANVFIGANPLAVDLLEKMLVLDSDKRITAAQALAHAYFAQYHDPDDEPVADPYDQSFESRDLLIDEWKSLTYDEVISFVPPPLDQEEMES
Sequence of Glycogen synthase kinase-3 beta (Homo sapiens) (P49841 whole entry, looked up): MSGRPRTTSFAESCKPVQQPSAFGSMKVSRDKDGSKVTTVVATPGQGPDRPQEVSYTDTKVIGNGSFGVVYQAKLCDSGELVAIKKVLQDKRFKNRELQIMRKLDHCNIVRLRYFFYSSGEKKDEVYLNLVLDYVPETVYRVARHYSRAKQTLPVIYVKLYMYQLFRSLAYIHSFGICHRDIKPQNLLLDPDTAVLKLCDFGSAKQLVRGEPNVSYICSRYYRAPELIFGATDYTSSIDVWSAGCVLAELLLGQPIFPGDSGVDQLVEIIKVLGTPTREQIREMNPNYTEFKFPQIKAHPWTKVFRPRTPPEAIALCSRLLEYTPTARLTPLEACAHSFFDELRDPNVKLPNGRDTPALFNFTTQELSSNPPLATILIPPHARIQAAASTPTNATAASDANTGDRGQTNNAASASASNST

**Q.** With Nc1ncnc2c1ncn2[C@@H]1O[C@H](COC(=O)c2ccc[nH]2)[C@@H](O)[C@H]1O as the compound, how does the IC50 [1] read?
**A.** 890 nM

**Q.** And the Activity (Staphylococcus aureus)?
**A.** inactive

**Q.** What about the IC50 [2] of the same compound?
**A.** 800 nM

**Q.** And the inhibition [3]?
**A.** 100%

**Q.** And the Activity (Saccharomyces cerevisiae)?
**A.** inactive

**Q.** And the inhibition [4]?
**A.** 95%

**Q.** And the Activity (HL-60)?
**A.** inactive

**Q.** What about the inhibition [5] of the same compound?
**A.** 99%

**Q.** What about the inhibition [6] of the same compound?
**A.** 96%

**Q.** What about the inhibition [7] of the same compound?
**A.** 95%

**Q.** And the inhibition [8]?
**A.** 98%

**Q.** And the inhibition [9]?
**A.** 95%

**Q.** What about the IC50 [10] of the same compound?
**A.** 1000 nM

**Q.** Which IC50 [1] does the source give for Nc1nc2c(ncn2[C@@H]2O[C@H](COC(=O)c3cc[nH]c3)[C@@H](O)[C@H]2O)c(=O)[nH]1 here?
**A.** 670 nM

**Q.** And the Activity (Staphylococcus aureus)?
**A.** inactive

**Q.** What about the IC50 [2] of the same compound?
**A.** 680 nM

**Q.** And the inhibition [3]?
**A.** 96%

**Q.** What about the Activity (Saccharomyces cerevisiae) of the same compound?
**A.** inactive

**Q.** And the inhibition [4]?
**A.** 87%

**Q.** What about the Activity (HL-60) of the same compound?
**A.** inactive

**Q.** And the inhibition [5]?
**A.** 93%

**Q.** And the inhibition [6]?
**A.** 93%

**Q.** What about the inhibition [7] of the same compound?
**A.** 84%

**Q.** And the inhibition [8]?
**A.** 99%

**Q.** What about the inhibition [9] of the same compound?
**A.** 82%

**Q.** What about the IC50 [10] of the same compound?
**A.** 990 nM

**Q.** Which results are given for O=C(OC[C@H]1O[C@@H](n2cnc3c(=O)[nH]cnc32)[C@H](O)[C@@H]1O)c1ccc[nH]1?
**A.** IC50 [1]: 1110 nM; Activity (Staphylococcus aureus): inactive; IC50 [2]: 230 nM; inhibition [3]: 94%; Activity (Saccharomyces cerevisiae): inactive; inhibition [4]: 97%; Activity (HL-60): inactive; inhibition [5]: 94%; inhibition [6]: 102%; inhibition [7]: 95%; inhibition [8]: 83%; inhibition [9]: 42%; IC50 [10]: 1320 nM

**Q.** O=C(OC[C@H]1O[C@@H](n2cnc3c(=O)[nH]cnc32)[C@H](O)[C@@H]1O)c1cc[nH]c1 was tested. Which IC50 [1] did it give?
**A.** 610 nM

**Q.** And the Activity (Staphylococcus aureus)?
**A.** inactive

**Q.** What about the IC50 [2] of the same compound?
**A.** 640 nM

**Q.** What about the inhibition [3] of the same compound?
**A.** 99%

**Q.** And the Activity (Saccharomyces cerevisiae)?
**A.** inactive

**Q.** What about the inhibition [4] of the same compound?
**A.** 97%

**Q.** What about the Activity (HL-60) of the same compound?
**A.** inactive

**Q.** And the inhibition [5]?
**A.** 100%

**Q.** What about the inhibition [6] of the same compound?
**A.** 95%

**Q.** And the inhibition [7]?
**A.** 95%

**Q.** And the inhibition [8]?
**A.** 100%

**Q.** And the inhibition [9]?
**A.** 89%

**Q.** And the IC50 [10]?
**A.** 870 nM

**Q.** What does the source list for Nc1ncnc2c1ncn2[C@@H]1O[C@H](COC(=O)c2cc[nH]c2)[C@@H](O)[C@H]1O?
**A.** IC50 [1]: 1000 nM; Activity (Staphylococcus aureus): inactive; IC50 [2]: 970 nM; inhibition [3]: 98%; Activity (Saccharomyces cerevisiae): inactive; inhibition [4]: 98%; Activity (HL-60): inactive; inhibition [5]: 101%; inhibition [6]: 94%; inhibition [7]: 95%; inhibition [8]: 98%; inhibition [9]: 87%; IC50 [10]: 1710 nM

**Q.** For Nc1nc2c(ncn2[C@@H]2O[C@H](COC(=O)c3ccc[nH]3)[C@@H](O)[C@H]2O)c(=O)[nH]1, which IC50 [1] is on record?
**A.** 710 nM

**Q.** And the Activity (Staphylococcus aureus)?
**A.** inactive

**Q.** And the IC50 [2]?
**A.** 660 nM

**Q.** What about the inhibition [3] of the same compound?
**A.** 98%

**Q.** And the Activity (Saccharomyces cerevisiae)?
**A.** inactive

**Q.** And the inhibition [4]?
**A.** 96%

**Q.** And the Activity (HL-60)?
**A.** inactive

**Q.** And the inhibition [5]?
**A.** 98%

**Q.** And the inhibition [6]?
**A.** 96%

**Q.** And the inhibition [7]?
**A.** 93%

**Q.** What about the inhibition [8] of the same compound?
**A.** 101%

**Q.** And the inhibition [9]?
**A.** 88%

**Q.** And the IC50 [10]?
**A.** 950 nM

Source: ChEMBL document CHEMBL4602660, “Kinase-Inhibitory Nucleoside Derivatives from the Pacific Bryozoan Nelliella nelliiformis” (J Nat Prod, 2020)
